Key:
[1] = tested on: R3(R6S1); test: Effect of cyclothiazide on the peak response to glutamate (outside-out patch); assay type: cell-based, rat; details: 100 µM cyclothiazide added to the agonist solution, n=10
[2] = molecular target: T1, GluR3flip (Rattus norvegicus, UniProt P19492); test: Block of desensitization by cyclothiazide added to the agonist solution (outside-out patch); assay type: cell-based; details: cyclothiazide 100µM added to the agonist solution (10 mM glutamate)
T1 construct: expressed in transfected cells; host or cells: HEK293 (ATCC CRL 1573), transient, pcDNA3

[3] = molecular target: T2, R6TM1R3(Y521L) (Rattus norvegicus, UniProt P19492+P42260, A582S/A630S/C576V/C595R/D598Q/D600P/D669E/D672E/E603P/E625D/E665V/E681A/F612L/G615S/H593E/I581V/I639V/INS589HLED/INS599P/K629R/K679E/L568V/L569F/L572I/L608I/L609F/L619F/L626I/M627S/N596D/N605E/P592E/S624C/T607G/T633G/V580L/V601D/V602P/V616L/Y521L/Y566C/Y590N); test: Responses to kainate and effect of cyclothiazide (outside-out patch); assay type: cell-based; details: glutamate evoked current in the presence of 100 µM cyclothiazide
T2 construct: the entire extracellular N-terminal region of GluR3flip was substituted by the corresponding region of GluR6; expressed in transfected cells; host or cells: HEK293, transient

[4] = tested on: T504A, E511K or their combined exchange; assay type: cell-based, rat
[5] = molecular target: T3, GluR3 L507Y (Rattus norvegicus, UniProt P19492, L507Y); test: Responses to quisqualate and AMPA and effect of cyclothiazide (outside-out patch); assay type: cell-based
T3 construct: expressed in transfected cells; host or cells: HEK293, transient, pCDNA3

[6] = molecular target: T4, R6TM1R3 (Rattus norvegicus, UniProt P19492+P42260, A582S/A630S/C576V/C595R/D598Q/D600P/D669E/D672E/E603P/E625D/E665V/E681A/F612L/G615S/H593E/I581V/I639V/INS589HLED/INS599P/K629R/K679E/L568V/L569F/L572I/L608I/L609F/L619F/L626I/M627S/N596D/N605E/P592E/S624C/T607G/T633G/V580L/V601D/V602P/V616L/Y566C/Y590N); test: Effect of cyclothiazide on the peak response to glutamate (outside-out patch); assay type: cell-based; details: 100 µM cyclothiazide added to the agonist solution, n=13
T4 construct: the entire extracellular N-terminal region of GluR3flip was substituted by the corresponding region of GluR6; expressed in transfected cells; host or cells: HEK293, transient

[7] = tested on: GluR3-S1 chimeras; test: Responses to saturating kainate concentrations compared with glutamate (outside-out patch); assay type: cell-based, rat; details: saturating kainate concentrations (5-10 mM)

T3 sequence (P19492 23-888 isoform P19492-2 L507Y limits assumed): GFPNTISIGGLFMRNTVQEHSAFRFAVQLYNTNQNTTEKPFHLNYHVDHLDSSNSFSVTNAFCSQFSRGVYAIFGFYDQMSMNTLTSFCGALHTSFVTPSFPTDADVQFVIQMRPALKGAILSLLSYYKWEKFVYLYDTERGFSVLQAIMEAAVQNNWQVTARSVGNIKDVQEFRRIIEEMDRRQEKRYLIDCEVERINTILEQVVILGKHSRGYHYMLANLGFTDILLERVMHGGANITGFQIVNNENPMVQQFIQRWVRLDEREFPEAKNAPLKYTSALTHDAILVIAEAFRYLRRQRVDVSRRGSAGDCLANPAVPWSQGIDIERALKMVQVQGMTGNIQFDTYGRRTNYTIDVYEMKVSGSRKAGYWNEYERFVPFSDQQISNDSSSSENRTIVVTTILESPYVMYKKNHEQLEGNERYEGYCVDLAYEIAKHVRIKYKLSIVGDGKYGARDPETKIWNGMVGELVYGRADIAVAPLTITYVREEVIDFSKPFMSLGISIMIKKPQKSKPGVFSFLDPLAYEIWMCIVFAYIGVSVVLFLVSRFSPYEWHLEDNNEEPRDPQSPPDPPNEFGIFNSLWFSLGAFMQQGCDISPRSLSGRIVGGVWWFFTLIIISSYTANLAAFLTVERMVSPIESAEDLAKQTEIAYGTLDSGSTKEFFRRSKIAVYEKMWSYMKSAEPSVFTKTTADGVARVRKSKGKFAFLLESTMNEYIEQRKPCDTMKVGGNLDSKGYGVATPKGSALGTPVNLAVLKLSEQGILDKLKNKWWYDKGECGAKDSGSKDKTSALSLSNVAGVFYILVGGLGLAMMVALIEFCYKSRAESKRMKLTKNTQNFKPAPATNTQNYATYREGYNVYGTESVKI
T2 sequence (P42260+P19492 fused with the stated changes): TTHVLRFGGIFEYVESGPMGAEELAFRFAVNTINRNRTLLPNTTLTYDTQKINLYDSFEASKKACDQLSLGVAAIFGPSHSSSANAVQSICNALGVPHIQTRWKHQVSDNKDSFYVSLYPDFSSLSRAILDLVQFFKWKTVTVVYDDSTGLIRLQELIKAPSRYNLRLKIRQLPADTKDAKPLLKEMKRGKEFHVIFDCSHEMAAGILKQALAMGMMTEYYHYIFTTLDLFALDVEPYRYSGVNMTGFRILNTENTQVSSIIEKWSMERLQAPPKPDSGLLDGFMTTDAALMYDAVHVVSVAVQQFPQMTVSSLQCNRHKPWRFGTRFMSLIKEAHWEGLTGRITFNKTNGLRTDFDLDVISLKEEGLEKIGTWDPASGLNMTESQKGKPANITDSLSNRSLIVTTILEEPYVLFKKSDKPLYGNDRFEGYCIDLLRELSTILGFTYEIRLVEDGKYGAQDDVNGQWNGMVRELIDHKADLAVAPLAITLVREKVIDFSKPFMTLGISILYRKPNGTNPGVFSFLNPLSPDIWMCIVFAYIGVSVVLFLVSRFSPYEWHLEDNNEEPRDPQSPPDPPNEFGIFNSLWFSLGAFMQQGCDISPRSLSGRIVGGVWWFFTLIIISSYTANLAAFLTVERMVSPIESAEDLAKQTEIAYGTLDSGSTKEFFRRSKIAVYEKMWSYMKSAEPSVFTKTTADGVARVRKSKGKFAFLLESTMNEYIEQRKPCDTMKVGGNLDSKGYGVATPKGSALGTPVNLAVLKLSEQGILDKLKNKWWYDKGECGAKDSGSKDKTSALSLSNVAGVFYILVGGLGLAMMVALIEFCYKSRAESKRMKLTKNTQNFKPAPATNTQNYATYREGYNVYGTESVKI
T1 sequence (P19492 23-888 isoform P19492-2 limits assumed): as the sequence (P19492 23-888 isoform P19492-2 L507Y limits assumed) above, with Y485L counted along it
T4 sequence (P42260+P19492 fused with the stated changes): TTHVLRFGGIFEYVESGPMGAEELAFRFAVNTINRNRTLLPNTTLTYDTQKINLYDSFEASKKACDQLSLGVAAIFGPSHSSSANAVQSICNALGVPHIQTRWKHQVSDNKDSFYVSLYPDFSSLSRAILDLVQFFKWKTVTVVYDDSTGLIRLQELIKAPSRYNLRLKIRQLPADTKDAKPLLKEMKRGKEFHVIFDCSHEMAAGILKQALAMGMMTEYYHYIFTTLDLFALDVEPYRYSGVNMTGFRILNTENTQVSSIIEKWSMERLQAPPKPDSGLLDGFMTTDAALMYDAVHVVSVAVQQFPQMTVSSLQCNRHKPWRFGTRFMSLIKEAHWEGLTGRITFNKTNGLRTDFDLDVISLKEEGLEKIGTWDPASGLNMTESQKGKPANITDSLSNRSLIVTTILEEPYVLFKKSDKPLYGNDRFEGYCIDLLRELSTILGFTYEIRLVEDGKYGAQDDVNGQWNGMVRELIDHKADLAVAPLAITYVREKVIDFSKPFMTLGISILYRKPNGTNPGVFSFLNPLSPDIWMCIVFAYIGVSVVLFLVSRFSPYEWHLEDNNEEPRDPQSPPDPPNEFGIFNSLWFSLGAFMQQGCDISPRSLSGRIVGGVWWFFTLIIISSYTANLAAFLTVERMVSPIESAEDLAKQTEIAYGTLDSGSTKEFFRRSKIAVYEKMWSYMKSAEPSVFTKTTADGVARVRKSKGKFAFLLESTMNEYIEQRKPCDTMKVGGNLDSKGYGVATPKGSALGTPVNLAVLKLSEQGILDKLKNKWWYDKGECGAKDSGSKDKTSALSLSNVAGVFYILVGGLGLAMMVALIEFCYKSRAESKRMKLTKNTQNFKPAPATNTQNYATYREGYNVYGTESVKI

Compound: NS(=O)(=O)c1cc2c(cc1Cl)NC(C1CC3C=CC1C3)NS2(=O)=O (stereo not drawn) [cyclothiazide]
- inhibition of the peak response [1]: 12±3%
- P/S values [2]: ~1
- effect on desensitization (result in words) [3]: Desensitization was blocked
- effect on desensitization (result in words) [4]: completely blocked
- reduction of peak response ([5]; cyclothiazide (100 µM)): 9.6±2.7%
- inhibition at 100 µM [6]: 14 ± 4%

Compound: Cc1onc(O)c1CC(N)C(=O)O (racemic) [AMPA, (RS)-alpha-amino-3-hydroxy-5-methyl-4-isoxazoleepropionic acid]
- P/S ([5]; agonist 1 mM): 1.05±0.03
- efficacy of opening, ratio glutamate/agonist ([5]; n=7): 0.97±0.03

Compound: C=C(C)[C@H]1CN[C@H](C(=O)O)[C@H]1CC(=O)O [kainate]
- desensitization of responses (result in words) [7]: essentially non-desensitizing

— patent EP1121436B1, “NON-DESENSITIZING AMPA-RECEPTORS” (Max-Planck-Gesellschaft zur Förderung der Wissenschaften …, priority 1998, dated 2000)
